PubChem BioAssay (NCI)
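Step 1: Grow cells in 96-well plates. Step 2: Expose to compound for 48 hours at 5 concentrations. Step 3: Interpolate endpoints linearly; if unreached, use highest concentration. GI50: concentration for 50% inhibition of growth. TGI denotes the concentration required for complete inhibition of growth.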

Experiments:
Test in all cases: inhibition of tumour cell growth, NCI panel, 48 h
[1] = tested on: HT29 colon
[2] = tested on: UACC-62 melanoma
[3] = tested on: MALME-3M melanoma
[4] = tested on: RPMI-8226 leukemia
[5] = tested on: NCI-H522 lung
[6] = tested on: SK-OV-3 ovarian
[7] = tested on: SW-620 colon
[8] = tested on: SK-MEL-5 melanoma
[9] = tested on: PC-3 prostate
[10] = tested on: HCT-15 colon

SMILES	TGI [1]	TGI [2]	TGI [3]	TGI [4]	TGI [5]	TGI [6]	TGI [7]	TGI [8]	TGI [9]	TGI [10]	GI50 [1]	GI50 [2]	GI50 [3]	GI50 [4]	GI50 [5]	GI50 [6]	GI50 [7]	GI50 [8]	GI50 [9]	GI50 [10]
C=C(CO[Si](C)(C)C(C)(C)C)C(C)=O	40.7 µM	30.5 µM	39.7 µM	> 77.8 µM	17.3 µM	> 100 µM	38.9 µM	28.4 µM	98.5 µM	77.6 µM										
COC1OC2COC1(OC)C1OC(C)(C)OC21 (stereo not given)	> 100 µM	> 100 µM	> 100 µM	> 100 µM	> 100 µM	> 100 µM	> 100 µM	> 100 µM	> 100 µM	> 100 µM										
CCN(C(=S)N[C@H](C(=O)N[C@@H](C)C(=O)OC)C(C)C)c1ccccc1	> 100 µM	> 100 µM	98.2 µM	> 100 µM	> 100 µM	> 100 µM	> 100 µM	> 100 µM	> 100 µM	> 100 µM										
CC1=NN(c2nc(N)nc(/C(C#N)=C/c3cccn3-c3cc(Cl)cc(Cl)c3)n2)C(C)(C)C1	> 100 µM	> 100 µM	> 100 µM	> 100 µM	> 100 µM	> 100 µM	> 100 µM	> 100 µM	> 100 µM	> 100 µM										
CCNC(=O)c1cc(/C=C/c2ccc([N+](=O)[O-])o2)nc2ccccc12	> 100 µM	> 100 µM	> 52.5 µM	> 100 µM	> 49 µM	> 100 µM	> 100 µM	4.1 µM	> 100 µM	> 100 µM										
O=C(Nc1ccccc1)N(CCCCN(Cc1ccccc1)C(=O)Nc1ccccc1)Cc1ccccc1	> 100 µM	> 100 µM	> 100 µM	> 100 µM	> 100 µM	> 100 µM	> 100 µM	> 100 µM	> 100 µM	> 100 µM										
COc1cc(C2c3cc4c(cc3OC(NNC(N)=O)C2C)OCO4)cc(OC)c1O (stereo not given)	> 56.8 µM	> 100 µM	> 100 µM	> 31.8 µM	10.5 µM	> 51.5 µM	> 100 µM	18 µM	> 100 µM	> 100 µM										
N#Cc1ccccc1-c1nc2c3c(c(N)ccc3n1)C(=O)c1ccccc1-2	> 100 µM	> 100 µM	> 100 µM	> 100 µM	> 100 µM	> 100 µM	> 100 µM	74.5 µM	> 100 µM	> 100 µM										
COC(=O)C(Cc1ccccc1)NP(=O)(O)OCC1OC(n2cc(F)c(=O)[nH]c2=O)CC1O (stereo not given)	> 100 µM	> 100 µM	> 100 µM	> 100 µM	> 100 µM	> 100 µM	> 100 µM	> 100 µM	> 100 µM	> 100 µM										
C=C(C)C(O)C(O)c1c(OC)ccc2ccc(=O)oc12 (stereo not given)	> 100 µM	> 100 µM	> 100 µM	> 100 µM	> 100 µM	> 100 µM	> 100 µM	> 100 µM	> 100 µM	> 100 µM										
CCN(CC)c1ccc2cc(C(=O)Nc3cccc4ccccc34)c(=N)oc2c1	> 100 µM	> 100 µM	> 100 µM	> 100 µM	> 100 µM	> 100 µM	> 100 µM	> 100 µM	> 100 µM	> 100 µM										
O=c1ccn(CC2(CO)CC(Cc3ccccc3)C2)c(=O)[nH]1 (stereo not given)	> 100 µM	> 100 µM	> 100 µM	> 100 µM	> 100 µM	> 100 µM	> 100 µM	> 100 µM	> 100 µM	> 100 µM										
COc1ccc(NC(C)=O)cc1N1C(=O)/C(=C\c2cc(OC)c(OC)c(OC)c2)SC1c1ccccc1 (stereo not given)	> 100 µM	> 100 µM	> 100 µM	> 100 µM	> 100 µM	> 100 µM	> 100 µM	> 100 µM	> 100 µM	> 100 µM										
CSC1=N/C(=C\c2ccco2)C(=O)N1CN1CCOCC1	> 100 µM	> 100 µM	> 80.7 µM	> 80.4 µM	> 100 µM	> 100 µM	> 95.4 µM	> 80.3 µM	> 100 µM	> 100 µM										
c1ccc2c(c1)CCc1c-2n(CCN2CCOCC2)c2ccccc12	25.9 µM	> 100 µM	32.2 µM	> 100 µM	28.6 µM	82.9 µM	> 100 µM	51.2 µM	> 100 µM	> 100 µM										
O=C(O)c1nc(-c2ccccc2)[nH]c1C(=O)O	20.2 µM	32.4 µM	30.6 µM	4.14 µM	32 µM	32.4 µM	6.78 µM	28.6 µM	11.6 µM	38.8 µM										
Cc1cc(N2CCCC2)nc(N(CCNc2ccnc3cc(Cl)ccc23)Cc2ccco2)n1	> 100 µM	78.2 µM	80.7 µM	4.5 µM	> 100 µM	38.8 µM	81.8 µM	3.28 µM	> 100 µM	> 100 µM	1.68 µM	4.11 µM	4.13 µM	2.02 µM	3.59 µM	7.16 µM	2.6 µM	1.78 µM	2.84 µM	3.19 µM
